Data published in ChEMBL document CHEMBL1201862, “PubChem BioAssay data set” (2004).
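Compound exposure: 48 hours, 5 concentrations, 96-well plates. Abbreviation: GI50, concentration required for 50% inhibition of growth.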 Active and inactive are the calls of the source. No stated cut-off is given here; in the data, active = GI50 up to about 1.1 µM and inactive = higher.

Assays:
Assay in all cases: NCI-60 cell line screen, 48 h
K562 = test system: K562
OVCAR-4 = test system: OVCAR-4
OVCAR-8 = test system: OVCAR-8
KM12 = test system: KM12
HCT-15 = test system: HCT-15
A549 = test system: A549
MDA-MB-435 = test system: MDA-MB-435
NCI/ADR-RES = test system: NCI/ADR-RES
SF-268 = test system: SF-268
MDA-N = test system: MDA-N
NCI-H226 = test system: NCI-H226
NCI-H23 = test system: NCI-H23
MDA-MB-231 = test system: MDA-MB-231
UACC-257 = test system: UACC-257
HL-60 = test system: HL-60
BT-549 = test system: BT-549
MOLT-4 = test system: MOLT-4
IGROV-1 = test system: IGROV-1
Malme-3M = test system: Malme-3M
EKVX = test system: EKVX

Structure (SMILES)	GI50 (K562)	GI50 (OVCAR-4)	GI50 (OVCAR-8)	GI50 (KM12)	GI50 (HCT-15) [µM]	GI50 (A549)	GI50 (MDA-MB-435)	GI50 (NCI/ADR-RES)	GI50 (SF-268)	GI50 (MDA-N)	GI50 (NCI-H226)	GI50 (NCI-H23)	GI50 (MDA-MB-231)	GI50 (UACC-257)	GI50 (HL-60)	GI50 (BT-549)	GI50 (MOLT-4)	GI50 (IGROV-1)	GI50 (Malme-3M)	GI50 (EKVX)
COC(=O)C(CCCCN)NC(=O)C(CCCCN)NC(=O)C(CCCCN)NC(C)=O.Cc1ccc(C(=O)Nc2ccc(S(=O)(=O)O)c3cc(S(=O)(=O)O)cc(S(=O)(=O)O)c23)cc1NC(=O)c1cccc(NC(=O)Nc2cccc(C(=O)Nc3cc(C(=O)Nc4ccc(S(=O)(=O)O)c5cc(S(=O)(=O)O)cc(S(=O)(=O)O)c45)ccc3C)c2)c1	> 50 µM (inactive)	11.3 µM (inactive)	> 50 µM (inactive)	> 50 µM (inactive)	18.6	> 50 µM (inactive)	> 50 µM (inactive)	> 50 µM (inactive)	43 µM (inactive)	> 50 µM (inactive)	17.7 µM (inactive)	> 50 µM (inactive)	> 50 µM (inactive)	> 50 µM (inactive)	> 50 µM (inactive)	> 50 µM (inactive)	> 50 µM (inactive)			
CC1(C2(C)OC(=O)c3ccccc32)OC(=O)c2ccccc21 (configuration not stated)		> 100 µM (inactive)	> 100 µM (inactive)	> 100 µM (inactive)	> 100	> 100 µM (inactive)	> 100 µM (inactive)	> 100 µM (inactive)	> 100 µM (inactive)	> 100 µM (inactive)	> 100 µM (inactive)	> 100 µM (inactive)	> 100 µM (inactive)	> 100 µM (inactive)	> 100 µM (inactive)	> 100 µM (inactive)	83.8 µM (inactive)	> 100 µM (inactive)		
CC1C(=O)N=C2C(=CN(Cc3ccccc3)c3ccccc32)C(=O)N1C (configuration not stated)	1.44 µM (inactive)	> 100 µM (inactive)	> 100 µM (inactive)	> 100 µM (inactive)	> 100	> 100 µM (inactive)	> 100 µM (inactive)	> 100 µM (inactive)	> 100 µM (inactive)	> 100 µM (inactive)	> 100 µM (inactive)	> 100 µM (inactive)	> 100 µM (inactive)	> 100 µM (inactive)		> 100 µM (inactive)		> 100 µM (inactive)	> 100 µM (inactive)	
Cn1ncc2c(Cl)ncnc21	> 100 µM (inactive)	> 100 µM (inactive)	> 100 µM (inactive)	> 100 µM (inactive)	> 100	> 100 µM (inactive)	> 100 µM (inactive)	> 100 µM (inactive)	> 100 µM (inactive)	> 100 µM (inactive)	> 100 µM (inactive)	> 100 µM (inactive)		> 100 µM (inactive)	> 100 µM (inactive)	> 100 µM (inactive)	> 100 µM (inactive)	> 100 µM (inactive)		> 100 µM (inactive)
COc1ccc2oc(C(=O)N3CC(CCl)c4ccc(N)cc43)cc2c1 (configuration not stated)	0.39 µM (active)	0.286 µM (active)	0.279 µM (active)	0.242 µM (active)	0.238	0.303 µM (active)	0.332 µM (active)	0.213 µM (active)	0.354 µM (active)	0.553 µM (active)	1.16 µM (inactive)	0.174 µM (active)	0.826 µM (active)	0.596 µM (active)	0.415 µM (active)	0.299 µM (active)	0.255 µM (active)	0.213 µM (active)		0.933 µM (active)
C=CCN1C(=O)/C(=C/c2ccccc2)NC1=S	84.5 µM (inactive)	> 100 µM (inactive)	> 100 µM (inactive)	> 100 µM (inactive)	> 100	88.9 µM (inactive)	> 100 µM (inactive)	> 100 µM (inactive)	> 100 µM (inactive)		15.6 µM (inactive)	> 100 µM (inactive)	> 100 µM (inactive)	74.1 µM (inactive)	43.5 µM (inactive)	> 100 µM (inactive)	61.7 µM (inactive)	> 100 µM (inactive)	> 100 µM (inactive)	91 µM (inactive)
COc1ccc(/C=C2\CSC/C(=C\c3ccc(OC)c(OC)c3OC)C2=O)c(OC)c1OC	23.1 µM (inactive)		24.1 µM (inactive)	32.4 µM (inactive)	25.6	> 100 µM (inactive)		23.1 µM (inactive)	41.6 µM (inactive)	30.3 µM (inactive)	> 100 µM (inactive)	43.5 µM (inactive)	66.4 µM (inactive)	42.3 µM (inactive)	29.2 µM (inactive)	35.5 µM (inactive)	> 10 µM (inactive)	37.8 µM (inactive)	5.86 µM (inactive)	> 100 µM (inactive)
COc1cc(C2SCC(=O)N2NC(=O)c2ccc(NC(C)=O)cc2OC)ccc1O (configuration not stated)	> 100 µM (inactive)	> 100 µM (inactive)	25.2 µM (inactive)		> 100	54.2 µM (inactive)	> 100 µM (inactive)	96.4 µM (inactive)	23.7 µM (inactive)	> 100 µM (inactive)		92.9 µM (inactive)			54.2 µM (inactive)	> 100 µM (inactive)	> 100 µM (inactive)	58.2 µM (inactive)	> 100 µM (inactive)	5.74 µM (inactive)
CCOC(=O)c1c(-c2ccc(OC)cc2)c(C#N)c(=S)n(C2OC(COC(C)=O)C(OC(C)=O)C(OC(C)=O)C2OC(C)=O)c1-c1ccccc1 (configuration not stated)	> 100 µM (inactive)	> 100 µM (inactive)		> 100 µM (inactive)	> 100	> 100 µM (inactive)	> 100 µM (inactive)	> 100 µM (inactive)	> 100 µM (inactive)	> 100 µM (inactive)		> 100 µM (inactive)	> 100 µM (inactive)	> 100 µM (inactive)	> 100 µM (inactive)	> 100 µM (inactive)	> 100 µM (inactive)	> 100 µM (inactive)	> 100 µM (inactive)	
COC1=CC(=O)C[C@@H](C)[C@]12Oc1c(Cl)c(OC)cc(OC)c1C2=O [GRISEOFULVIN]	3.47 µM (inactive)	38.2 µM (inactive)	30.1 µM (inactive)	6.04 µM (inactive)	22.8	63.5 µM (inactive)	2.42 µM (inactive)	12.3 µM (inactive)	> 68.9 µM (inactive)		52.8 µM (inactive)	42.1 µM (inactive)	6.41 µM (inactive)	> 20.5 µM (inactive)	6.7 µM (inactive)	> 39.5 µM (inactive)	39.9 µM (inactive)	17.4 µM (inactive)	76.4 µM (inactive)	> 100 µM (inactive)
CCCCCCCCC/C=C1\CCC(CN2CCOCC2)C1=O (configuration not stated)	2.45 µM (inactive)	3.72 µM (inactive)	1.82 µM (inactive)	2.17 µM (inactive)	2.47	15 µM (inactive)	2.36 µM (inactive)		3.94 µM (inactive)	2.64 µM (inactive)	5.61 µM (inactive)	3.9 µM (inactive)	2.96 µM (inactive)	3.99 µM (inactive)	1.67 µM (inactive)	2.08 µM (inactive)	1.57 µM (inactive)	4.83 µM (inactive)	7.08 µM (inactive)	14.8 µM (inactive)
OC(C1CO1)C(O)C1CO1 (configuration not stated)	81.3 µM (inactive)	84.9 µM (inactive)	55.2 µM (inactive)	87.9 µM (inactive)	55.3		101 µM (inactive)	40.7 µM (inactive)		29.9 µM (inactive)		20.1 µM (inactive)	132 µM (inactive)	81.7 µM (inactive)	3.21 µM (inactive)	120 µM (inactive)	3.68 µM (inactive)	68.1 µM (inactive)	55.7 µM (inactive)	90.4 µM (inactive)
COc1ccc(-c2nc(SCC(=O)N/N=C/c3ccc(N(C)C)cc3)[nH]c2-c2ccc(OC)cc2)cc1	18.5 µM (inactive)	> 100 µM (inactive)	84.7 µM (inactive)	32.6 µM (inactive)	46.3	17.6 µM (inactive)	74.8 µM (inactive)	> 100 µM (inactive)	> 100 µM (inactive)	76.9 µM (inactive)		> 100 µM (inactive)	> 100 µM (inactive)	> 100 µM (inactive)	11.5 µM (inactive)	> 100 µM (inactive)		> 100 µM (inactive)	> 100 µM (inactive)	90.4 µM (inactive)
COC(=O)C1=C(O)C(C(=O)OC)[C@]2(O)[C@H](C(=O)OC)[C@H]1C[C@@H](c1ccc(OC)c(OC)c1)[C@H]2C(=O)OC (some centres not stated)	13.6 µM (inactive)	29.6 µM (inactive)	13.3 µM (inactive)	21.1 µM (inactive)	14	11.6 µM (inactive)	11.3 µM (inactive)	15.5 µM (inactive)		7.13 µM (inactive)	4.79 µM (inactive)	19.8 µM (inactive)	34.2 µM (inactive)	20.5 µM (inactive)	7.83 µM (inactive)	16.4 µM (inactive)	17.5 µM (inactive)	26.1 µM (inactive)		32.5 µM (inactive)
c1ccc(C/C(=N\Nc2nc3ccccc3[nH]2)c2ccccn2)cc1	0.0228 µM (active)	< 0.01 µM (active)	0.0235 µM (active)	0.16 µM (active)	< 0.01	0.069 µM (active)	0.385 µM (active)	< 0.0164 µM (active)	0.0444 µM (active)	0.262 µM (active)	< 0.0279 µM (active)	0.019 µM (active)	0.0396 µM (active)	< 0.0107 µM (active)		0.248 µM (active)	< 0.01 µM (active)	< 0.01 µM (active)	< 0.0347 µM (active)	
